Test results taken from patent publication US11066369B2, “N-(pyridin-2-yl)pyridine-sulfonamide derivatives and their use in the treatment of disease” (Novartis AG, priority 2016, dated 2021).
Where a name gives a salt, the structure may show the parent alone. Read-outs that look alike come from different tables or passages of the source.

Experiments:
delF508-CFTR = target: T1, delF508-CFTR (Homo sapiens, UniProt P13569, DEL508-508); assay: Measurement of delF508-CFTR functional activity in primary human bronchial epithelial cells (HBECs) using Multi-Transepithelial Clamp Circuit (MTECC-24) assay; format: cell-based; conditions: primary CF HBECs; for MTECC24 CFHBEC- Amax %: test compound added 24h before assay plus potentiator, relative to reference combination (2 μM corrector + 0.5 μM potentiator); for EC50: test compound added 24h before assay, in the presence of potentiator, mean of at least two replicates, read-out: MTECC24 CFHBEC- EC50
T1 construct: functional activity of the CFTR channel (Chloride ion transport) in patient derived primary human bronchial epithelial cells; host or cells: patient-derived primary human bronchial epithelial cells (delF508-CFTR)
T1 sequence (P13569 with tags, fused parts or gaps DEL508-508): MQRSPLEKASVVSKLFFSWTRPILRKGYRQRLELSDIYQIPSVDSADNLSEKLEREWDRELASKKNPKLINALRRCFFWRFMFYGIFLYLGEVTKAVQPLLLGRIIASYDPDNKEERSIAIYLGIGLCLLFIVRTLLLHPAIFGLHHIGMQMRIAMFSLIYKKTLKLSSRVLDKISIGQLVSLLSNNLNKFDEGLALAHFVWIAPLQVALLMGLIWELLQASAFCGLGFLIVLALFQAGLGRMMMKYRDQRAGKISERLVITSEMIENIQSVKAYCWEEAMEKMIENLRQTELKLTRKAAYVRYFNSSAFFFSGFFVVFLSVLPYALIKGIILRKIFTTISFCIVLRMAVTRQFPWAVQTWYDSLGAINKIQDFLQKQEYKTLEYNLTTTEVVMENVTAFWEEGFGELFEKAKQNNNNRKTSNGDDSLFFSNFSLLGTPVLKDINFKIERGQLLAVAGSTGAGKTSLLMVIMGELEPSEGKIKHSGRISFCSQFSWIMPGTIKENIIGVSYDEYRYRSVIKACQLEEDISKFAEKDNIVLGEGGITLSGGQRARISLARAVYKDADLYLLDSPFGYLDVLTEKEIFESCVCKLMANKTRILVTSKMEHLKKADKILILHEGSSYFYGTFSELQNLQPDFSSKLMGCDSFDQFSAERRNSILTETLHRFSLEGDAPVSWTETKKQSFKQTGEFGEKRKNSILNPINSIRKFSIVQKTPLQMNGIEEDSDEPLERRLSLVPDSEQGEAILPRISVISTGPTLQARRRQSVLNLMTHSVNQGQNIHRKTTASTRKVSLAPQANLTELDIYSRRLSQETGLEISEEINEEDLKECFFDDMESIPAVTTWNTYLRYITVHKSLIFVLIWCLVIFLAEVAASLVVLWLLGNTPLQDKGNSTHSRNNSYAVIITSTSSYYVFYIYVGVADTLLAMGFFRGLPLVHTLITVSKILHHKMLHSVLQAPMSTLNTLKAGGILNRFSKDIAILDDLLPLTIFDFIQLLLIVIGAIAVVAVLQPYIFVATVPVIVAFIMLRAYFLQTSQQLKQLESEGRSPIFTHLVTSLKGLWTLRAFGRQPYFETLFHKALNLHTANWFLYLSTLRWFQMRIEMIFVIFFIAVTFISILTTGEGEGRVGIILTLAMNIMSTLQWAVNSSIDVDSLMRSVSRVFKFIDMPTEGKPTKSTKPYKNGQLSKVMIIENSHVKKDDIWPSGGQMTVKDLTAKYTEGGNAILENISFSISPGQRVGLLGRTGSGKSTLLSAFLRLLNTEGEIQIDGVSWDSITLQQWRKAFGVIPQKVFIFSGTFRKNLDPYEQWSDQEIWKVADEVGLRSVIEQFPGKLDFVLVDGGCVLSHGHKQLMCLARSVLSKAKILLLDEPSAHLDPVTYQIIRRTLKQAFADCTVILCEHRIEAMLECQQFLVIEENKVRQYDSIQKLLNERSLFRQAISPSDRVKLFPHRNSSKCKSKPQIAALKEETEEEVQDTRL
Procedure, shortened: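 Compound tested as 10-point, 1-in-3 concentration response (0.1% or 0.2% DMSO), 24 h basolateral pre-incubation, then re-added to both sides. MTECC-24 measured Ieq in ALI-differentiated primary delF508 bronchial cells after amiloride, forskolin activation, potentiator and INH-172 block; data normalized to DMSO baseline, EC50 fitted.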

[1] = target: T2, horseradish peroxidase (HRP) tagged delF508-CFTR (Homo sapiens, UniProt P13569, DEL508-508); assay: Measurement of delF508-CFTR-HRP surface expression in CFBE41o- cells; format: cell-based; conditions: for Emax: read-out: DelF508-CFTR-HRP Amax %;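 as to DelF508-CFTR-HRP Amax %: percent efficacy relative to reference corrector lumacaftor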
T2 construct: expressed in transfected cells
T2 sequence (P13569 with tags, fused parts or gaps DEL508-508): as above
Procedure, shortened: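 Surface-trafficked delF508-CFTR detected via extracellular HRP tag, read as luminescence from a membrane-impermeant substrate in CFBE41o- cells. Cells pre-induced 48h with 500 ng/mL doxycycline, then exposed 24h at 37° C to a 10-point, 3-fold dilution series from 10 μM (DMSO ≤0.5%). Triplicate dose-responses fitted logistically for EC50 after per-plate normalization; fold change versus reference compound.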

[2] = delF508-CFTR-HRP surface expression, CFBE41o- cells
[3] = delF508-CFTR-HRP surface expression, CFBE41o- cells, read-out: DelF508-CFTR-HRP EC50

MTECC24 CFHBEC- Amax % (delF508-CFTR) | EC50 (delF508-CFTR) | Emax [1, 2] | EC50 [1, 3] | SMILES | EC50 [1] | Emax ([1]; CFBE41o-)
95.6% | 139 nM | 231% | 2700 nM | COc1ccc(F)cc1-c1nc(NS(=O)(=O)c2cccc(N3CC(O)C3)n2)ccc1C(F)(F)F [Example 209, N-(6-(5-fluoro-2-methoxyphenyl)-5-(trifluoromethyl)pyridin-2-yl)-6-(3-hydroxyazetidin-1-yl)pyridine-2-sulfonamide] | – | –
46.7% | 22.8 nM | 132% | 2810 nM | Cc1ccccc1-c1nc(NS(=O)(=O)c2cccc(N3CCC(C(=O)O)CC3)n2)ccc1C(F)(F)F [Example 344, 1-(6-{[6-(2-methylphenyl)-5-(trifluoromethyl)pyridin-2-yl]sulfamoyl}pyridin-2-yl)piperidine-4-carboxylic Acid] | – | –
81.9% | 11 nM | 641% | 2360 nM | Cc1ccccc1-c1nc(NS(=O)(=O)c2cccc(O[C@@H]3COC[C@]3(C)O)n2)ccc1C(F)(F)F (single isomer, unassigned) [Example 294] | – | –
88.1% | 31.5 nM | 418% | 3050 nM | Cc1ccccc1-c1nc(NS(=O)(=O)c2cccc(N3CCC4(CC[C@@H]4N)CC3)n2)ccc1C(F)(F)F [Example 306, (S)-6-(1-amino-7-azaspiro[3.5]nonan-7-yl)-N-(6-(o-tolyl)-5-(trifluoromethyl)pyridin-2-yl)pyridine-2-sulfonamide] | – | –
82.4% | 9.6 nM | 389% | 3060 nM | Cc1ccccc1-c1nc(NS(=O)(=O)c2cccc(N3CCN(C)C(=O)C3)n2)ccc1C(F)(F)F [Example 196, 6-(4-methyl-3-oxopiperazin-1-yl)-N-(6-(o-tolyl)-5-(trifluoromethyl)pyridin-2-yl)pyridine-2-sulfonamide] | – | –
74.2% | 126 nM | 545% | 2220 nM | Cc1ccc(F)cc1-c1nc(NS(=O)(=O)c2ccnc(N3CC(C)(O)C3)c2)ccc1C(F)(F)F [Example 320, N-(6-(5-fluoro-2-methylphenyl)-5-(trifluoromethyl)pyridin-2-yl)-2-(3-hydroxy-3-methylazetidin-1-yl)pyridine-4-sulfonamide] | – | –
64.4% | 101 nM | 206% | 3860 nM | Cc1ccccc1-c1nc(NS(=O)(=O)c2cccc(N3CCN(C(=O)CN)CC3)n2)ccc1C(F)(F)F [Example 191, 6-(4-glycylpiperazin-1-yl)-N-(6-(o-tolyl)-5-(trifluoromethyl)pyridin-2-yl)pyridine-2-sulfonamide hydrochloride] | – | –
93.7% | 3.5 nM | – | 1190 nM | Cc1ccccc1-c1nc(NS(=O)(=O)c2cccc(N[C@@H]3COCC[C@H]3O)n2)ccc1C(F)(F)F [Example 279, 6-{[(3R,4R)-4-hydroxyoxan-3-yl]amino}-N-[6-(2-methylphenyl)-5-(trifluoromethyl)pyridin-2-yl]pyridine-2-sulfonamide] | – | –
91.2% | 1.4 nM | 809% | 928 nM | O=C(O)[C@H]1CCCN(c2cccc(S(=O)(=O)Nc3ccc(C(F)(F)F)c(-c4ccccc4C4CCC4)n3)n2)C1 [Example 367, (S)-1-(6-(N-(6-(2-cyclobutylphenyl)-5-(trifluoromethyl)pyridin-2-yl)sulfamoyl)pyridin-2-yl)piperidine-3-carboxylic Acid] | – | –

More lines, now with the values behind:

SMILES | MTECC24 CFHBEC- Amax % (delF508-CFTR) | EC50 (delF508-CFTR) | Emax [1, 2] | EC50 [1, 3] | EC50 [1] | Emax ([1]; CFBE41o-)
Cc1ccccc1-c1nc(NS(=O)(=O)c2cccc(N3CCC(N)CC3)n2)ccc1C(F)(F)F [Example 108, 6-(4-aminopiperidin-1-yl)-N-(6-(o-tolyl)-5-(trifluoromethyl)pyridin-2-yl)pyridine-2-sulfonamide Hydrochloride] | 61.4% | 54.9 nM | 336% | 4070 nM | – | –
Cc1ccccc1-c1nc(NS(=O)(=O)c2cccc(N3CCN(CC(F)F)CC3)n2)ccc1C(F)(F)F [Example 185, 6-(4-(2,2-difluoroethyl)piperazin-1-yl)-N-(6-(o-tolyl)-5-(trifluoromethyl)pyridin-2-yl)pyridine-2-sulfonamide] | 105.5% | 4.6 nM | 877% | 1460 nM | – | –
Cc1ccccc1-c1nc(NS(=O)(=O)c2cccc(N3C4CCCC3CC(C(=O)O)C4)n2)ccc1C(F)(F)F (stereo not drawn) [Example 345, 9-(6-{[6-(2-methylphenyl)-5-(trifluoromethyl)pyridin-2-yl]sulfamoyl}pyridin-2-yl)-9-azabicyclo[3.3.1]nonane-3-carboxylic Acid] | 90.4% | 41.5 nM | – | – | 1330 nM | 557%
CN[C@H]1CCN(c2cccc(S(=O)(=O)Nc3ccc(C(F)(F)F)c(-c4ccccc4C)n3)n2)C1 [Example 122, (S)-6-(3-(methylamino)pyrrolidin-1-yl)-N-(6-(o-tolyl)-5-(trifluoromethyl)pyridin-2-yl)pyridine-2-sulfonamide Hydrochloride] | 81.8% | 27.1 nM | 385% | 2690 nM | – | –
Cc1ccc(F)cc1-c1nc(NS(=O)(=O)c2cccc(N3CCN[C@H](CO)C3)n2)ccc1C(F)(F)F [Example 175, (S)—N-(6-(5-fluoro-2-methylphenyl)-5-(trifluoromethyl)pyridin-2-yl)-6-(3-(hydroxymethyl)piperazin-1-yl)pyridine-2-sulfonamide Hydrochloride] | 63.4% | 281 nM | 530% | 3270 nM | – | –
Cc1ccccc1-c1nc(NS(=O)(=O)c2cccc(N[C@@H]3CCCNC3)n2)ccc1C(F)(F)F [Example 104, (R)-6-(piperidin-3-ylamino)-N-(6-(o-tolyl)-5-(trifluoromethyl)pyridin-2-yl)pyridine-2-sulfonamide Hydrochloride] | 73.4% | 24.5 nM | – | 2140 nM | – | –
CNC1CCN(c2cccc(S(=O)(=O)Nc3ccc(C(F)(F)F)c(-c4ccccc4C)n3)n2)CC1 [Example 109, 6-(4-(methylamino)piperidin-1-yl)-N-(6-(o-tolyl)-5-(trifluoromethyl)pyridin-2-yl)pyridine-2-sulfonamide Hydrochloride] | 84.9% | 170 nM | 332% | 2680 nM | – | –
Cc1ccccc1-c1nc(NS(=O)(=O)c2cccc(N3CCNC[C@H]3C)n2)ccc1C(F)(F)F [Example 171, (R)-6-(2-methylpiperazin-1-yl)-N-(6-(o-tolyl)-5-(trifluoromethyl)pyridin-2-yl)pyridine-2-sulfonamide Hydrochloride] | 66.2% | 118 nM | 505% | 2730 nM | – | –
CO[C@@H]1CNCC[C@H]1Nc1cccc(S(=O)(=O)Nc2ccc(C(F)(F)F)c(-c3ccccc3C)n2)n1 (racemic) [Example 116, 6-(((3R,4R)-3-methoxypiperidin-4-yl)amino)-N-(6-(o-tolyl)-5-(trifluoromethyl)pyridin-2-yl)pyridine-2-sulfonamide Hydrochloride] | 60.8% | 107 nM | 370% | 3160 nM | – | –
Cc1ccc(F)cc1-c1nc(NS(=O)(=O)c2cccc(N)n2)ccc1C(F)(F)F [Example 1, 6-amino-N-(6-(5-fluoro-2-methylphenyl)-5-(trifluoromethyl)pyridin-2-yl)pyridine-2-sulfonamide] | 78.9% | 4 nM | 867% | 1780 nM | – | –
Cc1ccccc1-c1nc(NS(=O)(=O)c2cccc(N3CCN(CC(N)=O)CC3)n2)ccc1C(F)(F)F [Example 183, 2-(4-(6-(N-(6-(o-tolyl)-5-(trifluoromethyl)pyridin-2-yl)sulfamoyl)pyridin-2-yl)piperazin-1-yl)acetamide] | 67.8% | 74.9 nM | 191% | 896 nM | – | –
Nc1cccc(S(=O)(=O)Nc2ccc(Cl)c(-c3c(F)cccc3F)n2)n1 [Example 80, 6-amino-N-(5-chloro-6-(2,6-difluorophenyl)pyridin-2-yl)pyridine-2-sulfonamide] | 50.7% | 96 nM | 137% | 2280 nM | – | –
Cc1cccc(C)c1-c1nc(NS(=O)(=O)c2cccnc2N)ccc1Cl [Example 74, 2-amino-N-(5-chloro-6-(2,6-dimethylphenyl)pyridin-2-yl)pyridine-3-sulfonamide] | 67.3% | 283 nM | 158% | 2580 nM | – | –
Cc1cccc(C)c1-c1cc(C(F)(F)F)cc(NS(=O)(=O)c2cccc(N3CCNCC3)n2)n1 [Example 133, N-(6-(2,6-dimethylphenyl)-4-(trifluoromethyl)pyridin-2-yl)-6-(piperazin-1-yl)pyridine-2-sulfonamide Hydrochloride] | 71.2% | 97.9 nM | 570% | 2030 nM | – | –
